Measurements reported in ChEMBL document CHEMBL1133328, “Heterocyclic bibenzimidazole derivatives as topoisomerase I inhibitors” (Bioorg Med Chem Lett, 2000).

Assays:
[1] = target: T1, DNA topoisomerase 1 (Homo sapiens) (UniProt P11387); assay: Relative effective concentration that produces the same degree of cleavage on the plasmid DNA in the presence of human topoisomerase-1
T1 sequence (whole entry): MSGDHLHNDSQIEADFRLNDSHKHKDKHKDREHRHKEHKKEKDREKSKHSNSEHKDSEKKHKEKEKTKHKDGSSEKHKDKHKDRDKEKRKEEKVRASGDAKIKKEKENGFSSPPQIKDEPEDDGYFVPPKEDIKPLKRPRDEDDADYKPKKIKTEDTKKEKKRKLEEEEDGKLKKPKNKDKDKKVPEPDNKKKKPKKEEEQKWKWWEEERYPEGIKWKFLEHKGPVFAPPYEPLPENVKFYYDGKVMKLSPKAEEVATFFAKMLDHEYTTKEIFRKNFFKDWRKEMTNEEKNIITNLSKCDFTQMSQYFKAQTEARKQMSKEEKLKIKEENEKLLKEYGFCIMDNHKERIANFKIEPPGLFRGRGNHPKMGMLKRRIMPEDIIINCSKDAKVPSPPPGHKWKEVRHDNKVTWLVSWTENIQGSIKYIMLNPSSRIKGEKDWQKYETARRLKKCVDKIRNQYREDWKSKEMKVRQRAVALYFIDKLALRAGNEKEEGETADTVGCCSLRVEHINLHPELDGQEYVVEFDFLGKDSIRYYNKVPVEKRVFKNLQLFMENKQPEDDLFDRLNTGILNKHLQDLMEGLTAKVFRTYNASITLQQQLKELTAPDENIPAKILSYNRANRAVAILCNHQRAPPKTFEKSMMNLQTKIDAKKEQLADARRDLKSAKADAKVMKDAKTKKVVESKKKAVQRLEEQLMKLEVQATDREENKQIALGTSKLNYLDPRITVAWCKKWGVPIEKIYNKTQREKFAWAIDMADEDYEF

[2] = system: Nucleic Acid; assay: Compound-poly(dA).poly(dT) association constant at the melting temperature (80 degree C) of the compound-DNA complex was determined; type: nucleic-acid assay
[3] = system: Nucleic Acid; assay: Compound-poly(dA).poly(dT) association constant at the melting temperature (81.5 degree C) DNA complex was determined; type: nucleic-acid assay
[4] = system: Nucleic Acid; assay: Compound-poly(dA).poly(dT) association constant at the melting temperature (73.4 degree C) DNA complex was determined; type: nucleic-acid assay

| Compound | Topoisomerase-I activity [1] | K Tm [2] | K Tm [3] | K Tm [4] |
| --- | --- | --- | --- | --- |
| c1ccc(-c2ccc3[nH]c(-c4ccc5[nH]c(-c6ccc7nccnc7c6)nc5c4)nc3c2)cc1 | > 100 |  |  |  |
| c1ccc(-c2ccc3[nH]c(-c4ccc5[nH]c(-c6ccc7cc[nH]c7c6)nc5c4)nc3c2)cc1 | 5 | 1.9e+08 M⁻¹ |  |  |
| Oc1nc2ccc(-c3nc4cc(-c5nc6cc(-c7ccccc7)ccc6[nH]5)ccc4[nH]3)cc2nc1O | 1 |  |  |  |
| c1ccc(-c2ccc3[nH]c(-c4ccc5[nH]c(-c6ccc7[nH]cnc7c6)nc5c4)nc3c2)cc1 | 1 |  | 2.8e+08 M⁻¹ |  |
| c1ccc(-c2ccc3[nH]c(-c4ccc5[nH]c(-c6ccc7[nH]nnc7c6)nc5c4)nc3c2)cc1 | 1 |  |  |  |
| c1ccc(-c2ccc3[nH]c(-c4ccc5[nH]c(-c6ccc7[nH]ccc7c6)nc5c4)nc3c2)cc1 | 50 |  |  | 3.5e+07 M⁻¹ |
